From US8518443B2, “Opioid agonist formulations with releasable and sequestered antagonist” (Purdue Pharma, L.P., priority 2001, dated 2013)
Where a name gives a salt, the structure may show the parent alone. Read-outs that look alike come from different tables or passages of the source.

What was measured:
[1] = assay type: in vivo
Description: In certain preferred embodiments, the opioid agonist is hydrocodone or oxycodone.

[2] = after oral doses; cited from earlier work
[3] = following oral administration; cited from earlier work
opioid receptors = conditions: daily dosage of 50 mg; cited from earlier work
[4] = cited from earlier work
[5] = in comparison to a 15 mg dose of hydrocodone

| Compound | Equianalgesic dose, Calculated Dose [1, 5] [mg] | other results |
| --- | --- | --- |
| COc1ccc2c3c1O[C@H]1[C@@H](O)C=C[C@H]4[C@@H](C2)N(C)CC[C@@]341 [Codeine] | 90.0 |  |
| CCC(=O)C(CC(C)N(C)C)(c1ccccc1)c1ccccc1 (stereo not drawn) [Methadone] | 9.0 |  |
| CN1CC[C@]23CCCC[C@H]2[C@H]1Cc1ccc(O)cc13 [Levorphanol] | 1.8 |  |
| C[C@H]1[C@H]2Cc3ccc(O)cc3[C@]1(C)CCN2CC1CC1 [cyclazocine] |  | duration of action [2]: ~24 h |
| O=C1CC[C@@]2(O)[C@H]3Cc4ccc(O)c5c4[C@@]2(CCN3CC2CC2)[C@H]1O5 [naltrexone] |  | duration of action [2]: ~24 h; oral bioavailability [3]: 5-40%; blockade of the actions of parenterally administered opioids (opioid receptors): adequate clinical blockade |
| CN1CC[C@]23c4c5ccc(O)c4O[C@H]2[C@@H](O)C=C[C@H]3[C@H]1C5 [Morphine] |  | Equianalgesic dose, Calculated Dose ([1]; in vivo): 27.0 mg |
| COc1ccc2c3c1O[C@H]1C(=O)CC[C@@]4(O)[C@@H](C2)N(C)CC[C@]314 [Oxycodone, 4,5-expoxy-14-hydroxy-3-methoxy-17-methylmorphinan-6-one] | 13.5 |  |
| O=C1CC[C@@]2(O)[C@H]3Cc4ccc(O)c5c4[C@@]2(CCN3CC2CC2)[C@H]1O5 [hydrochloride salt of naltrexone] |  | solubility in water [4]: about 100 mg/cc |
| Meperidine | 135.0 |  |
| COc1ccc2c3c1OC1C(=O)CC[C@H]4[C@@H](C2)N(C)CC[C@]314 (stereo partly drawn) [Hydrocodone, 4,5-epoxy-3-methoxy-17-methylmorphinan-6-one] | 15.0 |  |
